How the values were obtained:
Format in all cases: cell-based
HeLa cells [1] = experiment: Confocal fluorescence imaging of intracellular lipid droplets in cells incubated with blood plasma; conditions: blood plasma and 10 μM A922500 for 24 hrs
Procedure: (§1) FIGS. 7A-H show A922500, a DGAT1 inhibitor, reduces the viability of CTCs in blood plasma. […] Cell viability is assayed with crystal violet staining and visualized at low resolution (left column) and high resolution (right column). […] Error bars are standard deviation of triplicate experiments. Asterisk indicates p-value≤0.01 versus culturing in EMEM medium. […] Control HeLa cells cultured in EMEM medium is presented in the top panel. HeLa cells incubated with blood plasma for 24 hrs is presented in the bottom panel. […] Images are control untreated HeLa cells cultured with EMEM medium (first panel); HeLa cells cultured in EMEM medium and treated with 10 μM A922500, a small-molecule inhibitor of diacylglycerol O-acyltransferase 1 (DGAT1), for 24 hrs (second panel); HeLa cells incubated with blood plasma for 24 hrs (third panel); and HeLa cells incubated with blood plasma and 10 μM A922500 for 24 hrs (fourth panel). FIGS. 7F-H show viability of HeLa cells following incubation with blood plasma or blood plasma and A922500. Cell viability is assayed with crystal violet staining and visualized at low resolution (FIG. 7F) and high resolution (FIG. 7G). […] Error bars are standard deviation of triplicate experiments. Single asterisk indicates p-value≤0.01 versus untreated control HeLa cells cultured with EMEM. […]

HeLa cells [2] = experiment: Cell viability by crystal violet staining after incubation with blood plasma and A922500; conditions: blood plasma and A922500, versus blood plasma alone for 24 hrs
Procedure: as §1

HeLa cells [3] = experiment: Cell cycle analysis by flow cytometry and propidium iodide staining of chromosomal DNA; conditions: HeLa cells as mocked CTCs, 40 nM doxorubicin for 24 hrs
Procedure: (§2) FIGS. 6A-G show drug delivery via electroporation. […] Cell cycle analysis is performed using flow cytometry and propidium iodide staining of chromosomal DNA. […] Error bars are standard deviation of triplicate experiments. Asterisk indicates p-value≤0.01 versus untreated control. FIGS. 6D-G show increased delivery of doxorubicin into HeLa cells via electroporation. […] Data are normalized to 1 for doxorubicin fluorescence of HeLa cells incubated with 40 nM doxorubicin without electroporation. Error bars are standard deviation of triplicate experiments. Asterisk indicates p-value≤0.01 versus no electroporation.
(§3) Another utility of the flow electroporator device is drug delivery during hemodialysis. Due to the unique cancer hallmarks of CTCs, many chemotherapeutic agents can be used for their selective targeting. […] Electroporation by the flow electroporator device enhanced doxorubicin uptake by CTCs by more than 4 fold (FIG. 6D-G). An advantage of drug delivery during hemodialysis is the subsequent removal of excess chemotherapeutic agents, thereby minimizing unnecessary side effects to cancer patients.

HeLa cells [4] = experiment: Doxorubicin uptake by flow cytometry of doxorubicin fluorescence, with and without the flow electroporator device; conditions: HeLa cells in EMEM, 40 nM doxorubicin, 500 ml/min, 300 V/cm, 200 V/cm, normalized to no electroporation
Procedure: as §2, §3

Compound	lipid droplet accumulation in CTCs incubated with blood plasma (HeLa cells [1])	viability of CTCs in blood plasma (HeLa cells [2])	effect on cell cycle of CTCs (HeLa cells [3])	enhancement of doxorubicin uptake by CTCs by electroporation (HeLa cells [4])
O=C(Nc1ccccc1)Nc1ccc(-c2ccc(C(=O)[C@@H]3CCC[C@H]3C(=O)O)cc2)cc1 [A922500]	inhibited lipid droplet accumulation	further reduced the viability	–	–
COc1cccc2c1C(=O)c1c(O)c3c(c(O)c1C2=O)C[C@@](O)(C(=O)CO)C[C@@H]3O[C@H]1C[C@H](N)[C@H](O)[C@H](C)O1 [doxorubicin]	–	–	cell cycle arrest	more than 4 fold

— patent publication US20230293801A1, “Flow Electroporator Device For Therapeutic Targeting Of Circulating Tumor Cells During Hemodialysis” (ROSEMAN UNIVERSITY OF HEALTH SCIENCES, priority 2022, published 2023)
